Tests used:
[1] = tested on: MES-SA/Dx-5 (doxorubicin-resistant cell line); assay: In vitro cytotoxicity, MTT assay; type: cell-based
Procedure: (§1) MTT assay is well established method for cytotoxicity test. When the cells are treated with MTT (methylthiazoletetrazolium), the MTT-formazan is produced from reduction of MTT-tetrazolium by enzymes present in living cells only (dead cells cannot reduce the MTT-tetrazolium to MTT-formazan). The fluorescence of the MTT-formazan is detected by a fluorescence reader and the optical density correlates with the number of cells.
(§2) The cytotoxic activity of each composition was evaluated in both human tumor cell lines at five ten-fold dilutions ranging from 0.01 to 100 μg/ml. […] The MTT-formazan produced from reduction of MTT-tetrazolium by enzymes present in the living cells was detected by a fluorescence reader. The optical density correlates with the number of cells. […] The MTT assay was performed essentially according to the method of Carmichael et al. (Cancer Research 47: 936 (1987)). Briefly, cells were harvested from an exponential phase culture growing in McCoy's 5A medium (Invitrogen Corp.) supplemented with 10% fetal bovine serum and 1% penicillin streptomycin, counted and plated in 96 well flat-bottomed microtiter plates (100 cell suspension, 5×10^4 cells/ml for each cell line). After a 24 h recovery to allow the cells to resume exponential growth, a culture medium (24 control wells per plate) or culture medium containing drug was added to the wells. Each drug concentration was plated in triplicate. […] Fluorescence was measured using an automatic microplate reader (SpectraMax 190, Molecular Devices) at a wavelength of 549 nm, and the number of viable cells was calculated from the optical density.

[2] = tested on: MES-SA (doxorubicin-sensitive cell line); assay: In vitro cytotoxicity, MTT assay; type: cell-based
Procedure: as §1, §2

[3] = tested on: MES-SA/Dx-5 (doxorubicin-resistant cell line); assay: Intracellular uptake, flow cytometry (FACS); type: cell-based, human; conditions: MES-SA/Dx-5, 1.0 μg/ml
Procedure: (§3) The flow cytometry study was performed with the FACStarPlus (Becton Dickinson) according to the method of Walker et al. (Experimental Cell Research 207: 142 (1993)). Briefly, cells (1.0×10^6) were incubated in McCoy's 5A medium (Invitrogen Corp.) supplemented with 10% fetal bovine serum and 1% penicillin streptomycin. After a 24-hour incubation period, the cells were treated with the drug composition at a dose of 1.0 μg/ml.

[4] = tested on: MES-SA (doxorubicin-sensitive cell line); assay: Intracellular uptake, flow cytometry (FACS); type: cell-based, human; conditions: 1.0 μg/ml
Procedure: as §3

[5] = rat, in vivo, iv, 5 mg/kg
Procedure: The rats (5 rats for each formulation) were injected intravenously through the tail vein at a dose of 5 mg/kg. The blood samples were collected from the tail vein at 1, 5, 15, 30 minutes and 1, 2, 4, 8, and 24 hours after the drug injection. The blood samples were immediately centrifuged, and the plasma was separated. The plasma samples were stored at −50° C. until analysis. Doxorubicin was analyzed by HPLC assay described in example 1.

Compound: COc1cccc2c1C(=O)c1c(O)c3c(c(O)c1C2=O)C[C@@](O)(C(=O)CO)C[C@@H]3O[C@H]1C[C@H](N)[C@H](O)[C@H](C)O1.Cl [Free-Dox, doxorubicin hydrochloride]
- MTT Assay IC50 ([1]; MES-SA/Dx-5, time 24 hr): 54.0 µg/mL
- MTT Assay IC50 ([1]; MES-SA/Dx-5, time 48 hr): 0.92 µg/mL
- MTT Assay IC50 ([1]; MES-SA/Dx-5, time 72 hr): 0.75 µg/mL
- MTT Assay IC50 ([2]; time 24 hr): 0.30 µg/mL
- MTT Assay IC50 ([2]; time 48 hr): 0.087 µg/mL
- MTT Assay IC50 ([2]; time 72 hr): 0.031 µg/mL
- Change of (Δ) Fluorescence Intensity ([3]; time 0 hr): 0.0
- Number of cells(%) which absorbed the drug ([3]; time 0 hr): 1.0%
- Change of (Δ) Fluorescence Intensity ([3]; time 1 hr): 2.6
- Number of cells(%) which absorbed the drug ([3]; time 1 hr): 1.8%
- Change of (Δ) Fluorescence Intensity ([3]; time 4 hr): 7.1
- Number of cells(%) which absorbed the drug ([3]; time 4 hr): 3.2%
- Change of (Δ) Fluorescence Intensity ([3]; time 8 hr): 9.2
- Number of cells(%) which absorbed the drug ([3]; time 8 hr): 5.3%
- Change of (Δ) Fluorescence Intensity ([4]; time 0 hr): 0.0
- Number of cells(%) which absorbed the drug ([4]; time 0 hr): 1.0%
- Change of (Δ) Fluorescence Intensity ([4]; time 1 hr): 7.6
- Number of cells(%) which absorbed the drug ([4]; time 1 hr): 4.0%
- Change of (Δ) Fluorescence Intensity ([4]; time 4 hr): 20.6
- Number of cells(%) which absorbed the drug ([4]; time 4 hr): 11.3%
- Change of (Δ) Fluorescence Intensity ([4]; time 8 hr): 40.6
- Number of cells(%) which absorbed the drug ([4]; time 8 hr): 35.1%
- AUC [5]: 1300 ng·h/mL
